Results taken from paper PMC9283466, “In silico identification of two peptides with antibacterial activity against multidrug-resistant Staphylococcus aureus” (NPJ Biofilms and Microbiomes, 2022).
Values after ≈ are worked out from the molar mass of the structure shown. Like-named read-outs stand apart in the source and are kept apart here.

Columns and labels:
List. monocytogenes = experiment: microbe, parasite or virus in culture; format: cell-based, Listeria monocytogenes; details: List. monocytogenes, Supplementary Table 5
Description: (§1) To determine the antimicrobial activity of the new antimicrobial peptides, HG2 and HG4, their minimum inhibitory concentrations (MICs) were determined by broth microdilution method[51] in cation adjusted Mueller Hinton broth (MHB) following the International Organisation for Standardisation (ISO) 20776-1 standard for MIC testing using a final bacterial inoculum of 5 × 10^5 CFU/ml[52]. […] The peptides dissolved in sterile distilled water were added to bacteria culture and incubated overnight at appropriate conditions. The MICs of the peptides and comparator antibiotics were recorded after 18–24 h. The minimum bactericidal concentrations (MBCs) were also determined and were taken as the lowest concentration of the antimicrobial that prevented the growth of bacterial cells after the subculture of cells (from MIC treatment) onto antibiotic-free media.

[1] = tested on: L. monocytogenes NCTC 11994; experiment: microbe, parasite or virus in culture; format: cell-based, Listeria monocytogenes; details: L. monocytogenes NCTC 11994
Description: as §1

P. aeruginosa (CF) C3719 = experiment: microbe, parasite or virus in culture; format: cell-based, Pseudomonas aeruginosa; details: P. aeruginosa (CF) C3719
Description: as §1

[2] = tested on: P. aeruginosa (CF) AMT0060; experiment: microbe, parasite or virus in culture; format: cell-based, Pseudomonas aeruginosa; details: P. aeruginosa (CF) AMT0060
Description: as §1

P. aeruginosa PA01 = experiment: microbe, parasite or virus in culture; format: cell-based, Pseudomonas aeruginosa; details: P. aeruginosa PA01
Description: as §1

P. aeruginosa = experiment: microbe, parasite or virus in culture; format: cell-based, Pseudomonas aeruginosa; details: P. aeruginosa, Supplementary Table 5
Description: as §1

[3] = tested on: P. aeruginosa (CF) LES400; experiment: microbe, parasite or virus in culture; format: cell-based, Pseudomonas aeruginosa; details: P. aeruginosa (CF) LES400
Description: as §1

E. coli = experiment: microbe, parasite or virus in culture; format: cell-based, Escherichia coli
Description: as §1

E. coli K12 = experiment: microbe, parasite or virus in culture; format: cell-based, Escherichia coli; details: E. coli K12
Description: as §1

Ent. faecalis JH2-2 = experiment: microbe, parasite or virus in culture; format: cell-based, Enterococcus faecalis; details: Ent. faecalis JH2-2
Description: as §1

Ent. faecalis = experiment: microbe, parasite or virus in culture; format: cell-based, Enterococcus faecalis; details: Ent. faecalis, Supplementary Table 5
Description: as §1

Sal. typhimurium = experiment: microbe, parasite or virus in culture; format: cell-based, Salmonella enterica serovar Typhimurium; details: Sal. typhimurium, Supplementary Table 5
Description: as §1

Sal. typhimurium SL1344 = experiment: microbe, parasite or virus in culture; format: cell-based, Salmonella enterica serovar Typhimurium; details: Sal. typhimurium SL1344
Description: as §1

A. baumannii 515722 = experiment: microbe, parasite or virus in culture; format: cell-based, Acinetobacter baumannii; details: A. baumannii 515722, sensitive
Description: as §1

A. baumannii 515908 = experiment: microbe, parasite or virus in culture; format: cell-based, Acinetobacter baumannii; details: A. baumannii 515908, sensitive
Description: as §1

A. baumannii 515785 = experiment: microbe, parasite or virus in culture; format: cell-based, Acinetobacter baumannii
Description: as §1

[4] = tested on: A. baumannii (IMI, MER resistant; strain ID not given); experiment: microbe, parasite or virus in culture; format: cell-based, Acinetobacter baumannii; details: A. baumannii, no strain ID, MER
Description: as §1

B. cereus = experiment: microbe, parasite or virus in culture; format: cell-based, Bacillus cereus; details: Bacillus cereus; B. cereus; read-out: MIC
Description: as §1

S. aureus EMRSA-15 = experiment: microbe, parasite or virus in culture; format: cell-based, Staphylococcus aureus; details: S. aureus EMRSA-15, resistances MRSA, Cip
Description: as §1

S. aureus = experiment: microbe, parasite or virus in culture; format: cell-based, Staphylococcus aureus
Description: as §1

EMRA-15 = experiment: microbe, parasite or virus in culture; format: cell-based, Staphylococcus aureus; details: EMRA-15, Supplementary Table 5
Description: as §1

K. pneumoniae 518842 = experiment: microbe, parasite or virus in culture; format: cell-based, Klebsiella pneumoniae
Description: as §1

[5] = tested on: K. pneumoniae ATCC 700603; experiment: microbe, parasite or virus in culture; format: cell-based, Klebsiella pneumoniae; details: K. pneumoniae ATCC 700603, SHV-18
Description: as §1

K. pneumoniae NCTC 13442 = experiment: microbe, parasite or virus in culture; format: cell-based, Klebsiella pneumoniae; details: K. pneumoniae NCTC 13442, OXA-48
Description: as §1

K. pneumoniae 526903 = experiment: microbe, parasite or virus in culture; format: cell-based, Klebsiella pneumoniae; details: K. pneumoniae 526903, sensitive
Description: as §1

S. aureus RN4220 = experiment: MIC, broth microdilution; format: cell-based, Staphylococcus aureus; details: sensitive
Description: as §1

[6] = tested on: LPS-driven NF-kB activation, eLUCidate Raw 264.7 NF-kB reporter cell line; experiment: Anti-inflammatory activity, NF-kB luciferase reporter; format: cell-based, murine; details: 10 ng/ml LPS from E. coli, 6 h
Description: (§2) The inhibitory activity of HG2, HG4 and comparator compounds against LPS and LTA was assessed using eLUCidate™ Raw 264.7 NF-kB reporter cell line (AMSBIO) as previously described. The eLUCidate NF-kB reporter cell line is a stably transfected Raw 264.7 cell line which expresses the Renilla luciferase reporter gene under the transcriptional control of the NF-kB response element, a key transcription factor involved in immune and inflammatory responses. This reporter cell line has been used to measure the induction of various toll-like receptors (TLR) by ligands, including LPS and LTA, therefore providing an effective way to evaluate inhibitors of their activations. Briefly, cells were grown and maintained following the manufacturer’s instructions in Dulbecco’s modified essential medium (DMEM) supplemented with 10% fetal calf serum (FCS), 1% L-glutamine, 1% antibiotics (Invitrogen) and containing 3 µg/ml of puromycin (Sigma-Aldrich, UK). To test the inhibitory activity of HG2 and HG4 on LPS or LTA-driven NF-kB activation, eLUCidate™ Raw 264.7 cells grown on 75 cm^2 flasks were detached using trypsin-EDTA solution (Thermofisher, UK) and seeded into 96-well cell culture plates (Greiner Bio-one, UK) at ~25,000 cells per well (counted using Mallasez’s chamber). The next day, wells were emptied, and cells were exposed to optimal concentrations of LPS or LTA determined from preliminary experiments, (i.e. 10 ng/ml of LPS from E. coli or 10 µg/ml of LTA from S. aureus (Invivogen, UK)) in the presence of increasing concentrations of HG2 or HG4 (from 0 to 500 µg/ml, serial 1:2 dilutions). Pyrrolidine dithiocarbamate (PDTC, 100 µM) and polymyxin B (PMB, 100 µM) (Sigma-Aldrich, UK) were used as positive controls based on their well-known activity as anti-inflammatory molecules and blockers/neutralisers of LPS and LTA, respectively. Importantly, all steps were performed using non-pyrogenic plastics and RNase/DNase molecular biology tips to limit the risk of the presence of a trace of LPS/LTA. After 6 h incubation at 37 °C and 5% CO2, wells were emptied, and the cells were treated with 70 µl of ice-cold PBS containing 1% Triton X-100. After 10 min incubation on ice under orbital shaking at 200 rpm, 50 µL of cell lysates were collected and transferred into white 96-well luminescence plates (Dominique Dutscher) already containing 100 µL of Renilla luciferase substrate (Yelen, France). Luminescence signals of the wells were immediately measured using a microplate reader (Biotek Synergy Mx, UK). The luminescence values were expressed as a percentage of control inflammation corresponding to values obtained after treatment with LPS or LTA in the absence of an inhibitor. The IC50 values of PDTC, PMB, HG2 or HG4 on LPS or LTA-mediated inflammation (i.e. the concentration of molecule causing a reduction of 50% of the luciferase’s induction caused by LPS or LTA) were calculated using GraphPad® Prism 7 software.

[7] = tested on: LTA-driven NF-kB activation, eLUCidate Raw 264.7 NF-kB reporter cell line; experiment: as above; format: cell-based, murine; details: 10 µg/ml LTA from S. aureus, 6 h
Description: as §2

[8] = Pseudomonas aeruginosa, read-out: MIC
[9] = Acinetobacter baumannii, read-out: MIC
[10] = Staphylococcus aureus, read-out: MIC
[11] = Staphylococcus aureus, read-out: Minimum inhibitory Concentrations MICs

## O=C(O)c1cn(C2CC2)c2cc(N3CCNCC3)c(F)cc2c1=O [Cip, ciprofloxacin, reference compound]
List. monocytogenes; Listeria monocytogenes, read-out: Minimum inhibitory Concentrations MICs
  MIC: 62.5 µg/mL (≈ 189 µM)
[1]; Listeria monocytogenes, NCTC11994, read-out: MIC
  MIC: 64 µg/mL (≈ 193 µM)
P. aeruginosa (CF) C3719; [8]
  MIC: 4 µg/mL (≈ 12.1 µM)
[2]; [8]
  MIC: 0.12 µg/mL (≈ 0.362 µM)
P. aeruginosa PA01; [8]
  MIC: 0.5 µg/mL (≈ 1.51 µM)
P. aeruginosa; Pseudomonas aeruginosa, read-out: Minimum inhibitory Concentrations MICs
  MIC: 0.49 µg/mL (≈ 1.48 µM)
[3]; [8]
  MIC: 4 µg/mL (≈ 12.1 µM)
E. coli; Escherichia coli, read-out: Minimum inhibitory Concentrations MICs
  MIC: 0.06 µg/mL (≈ 0.181 µM)
E. coli K12; Escherichia coli, read-out: MIC
  MIC: 0.06 µg/mL (≈ 0.181 µM)
Ent. faecalis JH2-2; Enterococcus faecalis, JH22, read-out: MIC
  MIC: 64 µg/mL (≈ 193 µM)
Ent. faecalis; Enterococcus faecalis, read-out: Minimum inhibitory Concentrations MICs
  MIC: 62.5 µg/mL (≈ 189 µM)
Sal. typhimurium; Salmonella enterica, read-out: Minimum inhibitory Concentrations MICs
  MIC: 0.12 µg/mL (≈ 0.362 µM)
Sal. typhimurium SL1344; Salmonella enterica, read-out: MIC
  MIC: 0.12 µg/mL (≈ 0.362 µM)
A. baumannii 515722; [9]
  MIC: 16 µg/mL (≈ 48.3 µM)
A. baumannii 515908; [9]
  MIC: 16 µg/mL (≈ 48.3 µM)
A. baumannii 515785; Acinetobacter baumannii, 515785
  MIC: > 128 µg/mL
[4]; [9]
  MIC: 16 µg/mL (≈ 48.3 µM)
B. cereus
  MIC: 0.015 µg/mL (≈ 0.0453 µM)
S. aureus EMRSA-15; [10]
  MIC: > 256 µg/mL
S. aureus; [11]
  MIC: > 250 µg/mL
EMRA-15; [11]
  MIC: > 250 µg/mL
K. pneumoniae 518842; Klebsiella pneumoniae, 518842
  MIC: > 128 µg/mL
[5]; Klebsiella pneumoniae, ATCC700603, read-out: MIC
  MIC: 0.25 µg/mL (≈ 0.754 µM)
K. pneumoniae NCTC 13442; Klebsiella pneumoniae, NCTC13442, read-out: MIC
  MIC: 64 µg/mL (≈ 193 µM)
K. pneumoniae 526903; Klebsiella pneumoniae, read-out: MIC
  MIC: 0.03 µg/mL (≈ 0.0905 µM)
S. aureus RN4220; [10]
  MIC: > 256 µg/mL

## polymyxin B [reference compound]
List. monocytogenes
  Minimum inhibitory Concentrations MICs: 62.5 µg/mL
[1]
  MIC: 64 µg/mL
[6]
  IC50, LPS-mediated inflammation: 62.26 ± 4.01 µg/mL
[7]
  IC50, LTA-mediated inflammation: 61.34 ± 3.47 µg/mL
P. aeruginosa (CF) C3719
  MIC: 1 µg/mL
[2]
  MIC: 0.5 µg/mL
P. aeruginosa PA01
  MIC: 2 µg/mL
P. aeruginosa
  Minimum inhibitory Concentrations MICs: 1.95 µg/mL
[3]
  MIC: 1 µg/mL
E. coli; E. coli, Supplementary Table 5
  Minimum inhibitory Concentrations MICs: 1.95 µg/mL
E. coli K12
  MIC: 2 µg/mL
Ent. faecalis JH2-2
  MIC: 32 µg/mL
Ent. faecalis
  Minimum inhibitory Concentrations MICs: 31.25 µg/mL
Sal. typhimurium
  Minimum inhibitory Concentrations MICs: 1.95 µg/mL
Sal. typhimurium SL1344
  MIC: 2 µg/mL
A. baumannii 515722
  MIC: 0.25 µg/mL
A. baumannii 515908
  MIC: 0.5 µg/mL
A. baumannii 515785; A. baumannii 515785, OXA-23, OXA-50
  MIC: 0.5 µg/mL
[4]
  MIC: 0.25 µg/mL
S. aureus EMRSA-15
  MIC: 256 µg/mL
S. aureus; S. aureus, Supplementary Table 5
  Minimum inhibitory Concentrations MICs: 250 µg/mL
EMRA-15
  Minimum inhibitory Concentrations MICs: 250 µg/mL
K. pneumoniae 518842; K. pneumoniae 518842, CTX-M
  MIC: 2 µg/mL
[5]
  MIC: 2 µg/mL
K. pneumoniae NCTC 13442
  MIC: 8 µg/mL
K. pneumoniae 526903
  MIC: 4 µg/mL
S. aureus RN4220
  MIC: 256 µg/mL
